The results in this text go back to PubChem BioAssay (NCI).

Values joined by “and” are separate entries in the source; they are usually repeats but may differ in a detail not shown here. Equal entries are not always repeated.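 Each compound was tested at five concentrations against cells in 96-well plates for 48 hours. GI50 marks 50% less growth. TGI: concentration producing complete growth inhibition.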

What all share (assay): NCI anticancer screen, dose series, 48 h
For test [1], the system named is SN12C renal.
In test [2] the test system is HL-60(TB) leukemia.
In test [3] the test system is ACHN renal.
Test [4] relates to UACC-257 melanoma.
The test system of test [5] is SK-MEL-5 melanoma.
Test [6] concerns NCI-H460 lung.
For test [7], the system named is MCF7 breast.
The subject of test [8] is HOP-92 NSCLC.
Test [9] deals with CCRF-CEM leukemia.
Test [10] has as its system HCT-116 colon.

For the molecule `Cc1ccc(C(=O)/C(=C\c2ccc([N+](=O)[O-])cc2)S(=O)Cc2ccc(Cl)cc2)cc1` (stereo not drawn), the GI50 in test [1] is 1.76 µM; in test [2], 2.47 µM; in test [3], 2.09 µM; in [4], 1.89 µM; in [5] it was 1.69 µM; in test [6], 1.84 µM. For the same molecule, the GI50 is 1.38 µM in test [7], 1.64 µM in test [8], 0.635 µM in test [9] and 1.43 µM in test [10]. Further, the TGI in [1] is 3.64 µM; in [2] it was 6.82 µM; in test [3] it was 4.98 µM; in test [4], 3.89 µM; in test [5] it was 3.23 µM; in test [6] it was 3.9 µM. The TGI in test [7] was 3.68 µM; in [8], 3.45 µM; in test [9] it was > 100 µM; in [10], 2.92 µM.

Take `CN(CC(=O)Nc1nc2ccccc2[nH]1)S(=O)(=O)c1ccc(Cl)cc1`: the GI50 in test [1], in test [2], in test [3], in [4], in test [5] and in [6] was > 100 µM throughout. Moreover, the GI50 in test [7], in test [8], in test [9] and in test [10] was > 100 µM each time. The TGI in test [1], in test [2], in test [3], in [4], in [5] and in test [6] was > 100 µM each time. In addition, the TGI in test [7], in [8], in test [9] and in test [10] was > 100 µM in each case.

Take `O=C(Nc1cccc(Cl)c1)c1cccc(NC2=C(Cl)C(=O)N(Cc3ccccc3)C2=O)c1`: the GI50 in [1] was 2.62 µM; in test [2] it was 12.6 µM; in test [3] it was 87.4 µM; in test [4], 72.5 µM; in [5] it was 34 µM; in [6], 37 µM. Also, the GI50 in test [7] is 25.6 µM; in test [8] it was 16.1 µM; in test [9], 7.2 µM; in test [10], 10.1 µM. Further, the TGI is 56.9 µM in test [1]; 31.8 µM in [2]; > 100 µM in test [3]; > 100 µM in [4]; > 100 µM in test [5]; > 100 µM in [6]. For the same molecule, the TGI is 83.7 µM in test [7], > 100 µM in test [8], > 100 µM in test [9] and 42.4 µM in test [10].

Regarding `O=C(/C=C/C12c3ccccc3C(c3ccccc31)C1C(=O)NC(=O)C12)c1ccc(F)cc1` (stereo not drawn), the GI50 in test [1] is 1.7 µM; in test [2] it was 0.0217 µM; in test [3] it was 2.43 µM; in test [4] it was 1.79 µM; in test [5], 1.72 µM; in test [6], 2.04 µM. Besides, the GI50 is 1.66 µM in test [7], 1.59 µM in test [8], 2.45 µM in test [9] and 1.58 µM in test [10]. Further, the TGI in [1] came to 3.29 µM; in test [2], 2.1 µM; in test [3] it was 6.18 µM; in test [4], 3.37 µM; in test [5] it was 3.16 µM; in [6] it was 5.05 µM. In addition, the TGI in test [7] is 4.48 µM; in test [8] it was 3.55 µM; in test [9], 8.42 µM; in test [10], 3.41 µM.

Take `C/C(=N\NC(=S)SCc1ccccc1)c1ccccn1`: the TGI in [1] is 3.13 µM; in test [2] it was 1.04 µM; in [3] it was 1.95 µM; in test [4], 1.42 µM; in [5], 5.56 µM; in [6] it was 10.6 µM. Further, the TGI in test [7] is < 0.01 µM; in [8], 2.14 µM; in test [9], < 0.01 µM; in test [10], 5.96 µM.

As for `C/C(=C\c1cc(C(F)(F)F)n(-c2ccc(N)cc2)n1)[C@@H]1C[C@@H]2O[C@]2(C)CCC[C@H](C)[C@H](O)[C@@H](C)C(=O)C(C)(C)[C@@H](O)CC(=O)O1`, the GI50 was 0.396 µM in test [1]; 0.0168 µM in test [2]; 0.0822 µM in test [3]; 0.965 µM in test [4]; 0.0235 µM in test [5]; 0.00733 µM in [6]. The GI50 in test [7] is 0.0041 µM; in test [8], 0.258 µM; in test [9] it was 0.0421 µM; in test [10], 0.00775 µM. For the same molecule, the TGI in [1] was > 11.1 µM; in test [2], 2.68 µM; in [3] it was > 11.1 µM; in test [4] it was > 11.1 µM; in [5], > 3.71 µM; in test [6], > 5.06 µM. Moreover, the TGI in [7] was > 11.1 µM; in test [8], > 11.1 µM; in test [9], > 11.1 µM; in [10], > 5.49 µM.

On to `O=C1C2CCN(CC2)C1(CO)CO`, for which the TGI is 33 µM in test [1]; > 78.6 µM in [2]; 32.3 µM in test [3]; 37.7 µM in test [4]; > 73.3 µM in [5]; > 100 µM in test [6]. Besides, the TGI in test [7] came to 66.4 µM; in test [8] it was 46.6 µM; in test [9], 32.2 µM; in test [10], 30.9 µM.

`O=C(O)c1c(=O)cccc2ssc12`: the GI50 in test [1] was 2.49 µM; in [2], 1.81 µM; in test [3], 1.72 µM; in [4], 2.02 µM; in test [5] it was 2.41 µM; in test [6], 1.96 µM. Also, the GI50 in test [7] is 1.83 µM; in [8], 1.86 µM; in test [10], 1.62 µM. In addition, the TGI in test [1] came out at 6.32 µM; in [2] it was 4.43 µM; in [3], 3.21 µM; in test [4], 4.19 µM; in test [5] it was 5.85 µM; in test [6], 4.13 µM. The values for the TGI in test [7], in test [8] and in [10] were 3.9 µM, 3.79 µM and 3.32 µM, respectively.

As for `NS(=O)(=O)NCCNc1nonc1C(=Nc1ccc(F)c(Br)c1)NO`, the GI50 in test [1] is 41.3 µM; in test [2], 36.9 µM; in [3] it was 31.2 µM; in test [5] it was 31.9 µM; in [6], 35.9 µM; in [7], 32.9 µM. Besides, the results for the GI50 in [8], in test [9] and in [10] were 23.6 µM, 49.8 µM and 42.6 µM, respectively. Moreover, the TGI in [1], in test [2], in test [3], in test [5], in test [6] and in test [7] was > 100 µM in each case. Further, the TGI in [8] is 86.2 µM; in [9], > 100 µM; in [10], > 100 µM.

`CC(C)=CCC/C(C)=C\CCC1(C)OC(=O)C2CC21` (stereo not drawn): the GI50 in [1] is > 100 µM and 26.4 µM; in test [3], > 100 µM and 25.1 µM; in test [6], 41.7 µM and 14 µM; in test [7] it was 64.9 µM and 21.6 µM; in test [10], 52.3 µM and 16.6 µM. Besides, the TGI in [1] is > 100 µM and 64.2 µM; in [2] it was 49.9 µM and 26.6 µM; in test [3] it was > 100 µM and 59.8 µM; in [4], > 100 µM; in test [5] it was > 100 µM; in [6], > 100 µM and 27 µM. The TGI in test [7] is > 100 µM and 52.6 µM; in [10], > 100 µM and 31.6 µM.

For `CN(C)CCNc1c2ccccc2nc2oc3ccccc3c12`, the GI50 in test [1] is 5.66 µM; in [2] it was 3.53 µM; in test [3], 4.48 µM; in test [4] it was 7.88 µM; in [5], 8.09 µM; in [6] it was 3.37 µM. For the same molecule, the values for the GI50 in test [7] and in test [10] were 4.07 µM and 4.16 µM, respectively. Also, the TGI in test [1] was found to be 34 µM; in [2], 25.2 µM; in test [3] it was 25.8 µM; in test [4], 27 µM; in test [5] it was 20.5 µM; in [6] it was 13.3 µM. For the same molecule, the TGI in test [7] is 16.1 µM; in test [9], 0.0412 µM; in test [10], 23.7 µM.

With `CC(=O)O[C@H](C[C@H](C(C)C)N(C)C(=O)[C@@H](NC(=O)[C@H]1CCCN1C)C(C)C)c1nc(C(=O)N[C@@H](Cc2ccccc2)C[C@H](C)C(=O)O)c(C)s1`, the GI50 is < 0.00167 µM in test [1]; < 0.00167 µM in test [2]; > 16.7 µM in [4]; < 0.00167 µM in test [5]; < 0.00167 µM in test [6]; < 0.00167 µM in test [7]. Moreover, the GI50 was 12.4 µM in [8], < 0.00167 µM in [9] and < 0.00167 µM in [10]. In addition, the TGI in test [1] was > 16.7 µM; in test [2] it was < 0.00167 µM; in [4] it was > 16.7 µM; in [5] it was 0.0243 µM; in test [6] it was > 16.7 µM; in test [7], > 16.7 µM. Moreover, the TGI in test [8], in test [9] and in [10] was > 16.7 µM in each case.

`O=NNc1ccc(Sc2ccc(NN=O)cn2)nc1`: the TGI in test [1], in test [2], in test [3], in test [4], in test [5] and in test [6] was > 100 µM throughout. In addition, the TGI in [7], in [9] and in test [10] was > 100 µM each time.
